Data as given in patent US10787419B2, “Cannabinoid receptor mediating iminopyrazole compounds” (The United States of America, as represented by the …, priority 2012, dated 2020).

How the values were obtained:
DIO mice = test: mice with diet-induced obesity (DIO) treated orally for 14 days; format: in vivo
Experimental: Glucose tolerance and insulin sensitivity were determined on the last 2 days of treatment, using i.p. glucose tolerance and insulin sensitivity tests.

[1] = test system: CCl4-induced liver fibrosis; test: CCl4-induced liver fibrosis model in mice; format: in vivo
Experimental: CCL-induced liver fibrosis was generated by intraperitoneal injection of CCL4 (1 ml/kg, diluted 1:10 corn oil), twice weekly for 8 weeks. […] Data represent mean±SEM from 7-8 mice per group. *P<0.05 relative to control. ^#indicates significant treatment effect (P<0.05) relative to CCl4-treated vehicle group.
Fibrosis results from excessive extracellular matrix deposition by myofibroblasts accompanying chronic inflammation and wound healing, and is a key pathogenic process in many organs, including kidneys, lung, and liver.

ZDF rats = test: Zucker diabetic fatty (ZDF) rat model of type 2 diabetes; format: in vivo; conditions: 10 mg/kg/day oral gavage, 7 days
iNOS = iNOS (Mus musculus (Mouse), UniProt P29477); test: iNOS activity in lung homogenates from LPS-treated mouse; format: biochemical
Experimental: Cellular iNOS activity was determined after replacing growth medium with reaction mixtures containing appropriate ligands (100 nM). ^& Mice were treated in vivo with vehicle or LPS (25 mg/kg, ip) and sacrificed 6 h later. Crude homogenate prepared from lung were incubated with the indicated ligands and iNOS activity was determined using a radioactivity-based assay.

[2] = in vivo metabolism, metabolite generation in plasma by LC-MS/MS; conditions: 1 h after oral 10 mg/kg in mice
CB1 = CB1 (Mus musculus (Mouse), UniProt P47746); test: radioligand displacement assay in mouse brain membranes (Ki CB1); format: binding
Chain of CB1 (P47746 whole entry): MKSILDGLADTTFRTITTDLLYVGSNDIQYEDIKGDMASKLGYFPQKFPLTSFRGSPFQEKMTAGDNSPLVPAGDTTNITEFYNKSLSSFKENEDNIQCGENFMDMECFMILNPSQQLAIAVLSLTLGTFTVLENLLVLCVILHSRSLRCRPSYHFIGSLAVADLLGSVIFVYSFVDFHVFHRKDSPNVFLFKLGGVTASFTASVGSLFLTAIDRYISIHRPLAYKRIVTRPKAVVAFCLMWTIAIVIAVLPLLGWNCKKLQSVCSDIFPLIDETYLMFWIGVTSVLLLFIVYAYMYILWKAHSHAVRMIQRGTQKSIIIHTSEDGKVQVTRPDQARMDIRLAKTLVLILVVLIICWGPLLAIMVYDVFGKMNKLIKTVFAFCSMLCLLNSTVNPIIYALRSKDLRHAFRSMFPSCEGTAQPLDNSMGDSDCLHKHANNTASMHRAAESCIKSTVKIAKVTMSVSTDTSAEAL

[3] = tissue levels in brain and plasma after administration to mice; conditions: 1 hour after 10 mg/kg to mice; indicating good oral bioavailability
recombinant human AMPK = test: recombinant AMPK activity assay; format: biochemical; conditions: rimonabant at 1 μM
Description: Guanides and biguanides, such as metformin, are effective as antidiabetic agents linked to their AMPK activating properties (Hardie et al., Chem Biol. 2012, […]; 1222-1236). Guanidine-containing analogs in certain embodiments were screened for activation of recombinant human AMPK, using an assay kit (Cyclex, Nagona, Japan), as illustrated in FIG. 8.
Activators of AMP-activated protein kinase (AMPK), such as guanidines of biguanides such as metformin are useful for the treatment of diabetes owing to their AMPK activating property (Hardie, et al., Chem & Biol 2012, 19(10); 1222-1236). Guanidine analogues of certain embodiments were screened for AMPK activation by using a recombinant AMPK activity assay.

[4] = DIO mice, 10 mg/kg/day oral, 14 days
[5] = 10 mg/kg/day orally for 4 weeks

SMILES: CC(=N)N/C(=N\S(=O)(=O)c1ccc(Cl)cc1)N1CC(c2ccccc2)C(c2ccc(Cl)cc2)=N1 (racemic) [Compound 2, 3-(4-chlorophenyl)-N′-((4-chlorophenyl)sulfonyl)-N-(1-iminoethyl)-4-phenyl-4,5-dihydro-1H-pyrazole-1-carboximidamine]
- hepatic TG (DIO mice; [4]): reduced
- hyperinsulinemia (DIO mice; [4]): abrogated
- hyperleptinemia (DIO mice; [4]): reduced
- food intake reduction (DIO mice; DIO mice, 10 mg/kg/day oral, during the first week): ~20%
- glucose intolerance and insulin resistance (DIO mice; DIO mice, 10 mg/kg/day oral, i.p. glucose tolerance and insulin sensitivity tests, last 2 days): nearly completely normalized
- In vivo Comments (DIO mice; mouse, in vivo): anti-diabetic anti-obesity
- CCl4-induced collagen deposition / liver fibrosis by Sirius red and Masson's trichrome staining [1, 5]: more effective than rimonabant
- CCl4-induced elevation of iNOS immunostaining [1, 5]: attenuated
- α-SMA, Procollagen-1 and Fibronectin-1 mRNA [1, 5]: more effective than rimonabant
- blood glucose (ZDF rats): prevented the increase in blood glucose
- insulin and c-peptide levels (ZDF rats): prevented
- inhibition at 1 µM (iNOS): ~48%
- in vivo metabolism [2]: underwent in vivo metabolism to liberate the amidine moiety and a metabolite

SMILES: NC=NC(=NS(=O)(=O)c1ccc(Cl)cc1)N1CC(c2ccccc2)C(c2ccc(Cl)cc2)=N1 (stereo not shown) [Compound 1]
- Ki (CB1; Table 2): 392 nM

SMILES: CC(=N)N/C(=N\S(=O)(=O)c1ccc(Cl)cc1)N1C[C@H](c2ccccc2)C(c2ccc(Cl)cc2)=N1 [Compound 2E1]
- CCl4-induced collagen deposition / liver fibrosis by Sirius red and Masson's trichrome staining [1, 5]: more effective than rimonabant
- CCl4-induced elevation of iNOS immunostaining [1, 5]: dramatically attenuated
- anti-fibrotic efficacy in liver fibrosis ([1]; compared with rimonabant): higher anti-fibrotic efficacy than rimonabant
- plasma levels after oral or i.p. administration [3]: comparable

SMILES: N=C(N/C(=N\S(=O)(=O)c1ccc(Cl)cc1)N1CC(c2ccccc2)C(c2ccc(Cl)cc2)=N1)C1CC1 (stereo not shown) [Compound 4]
- Ki (CB1; Table 1): 13 nM
- Ki (CB1; Table 2): 13 nM

SMILES: N=C(N/C(=N\S(=O)(=O)c1ccc(Cl)cc1)N1CC(c2ccccc2)C(c2ccc(Cl)cc2)=N1)c1ccccc1 (stereo not shown) [Compound 8]
- Ki (CB1; Table 1): 26 nM
- Ki (CB1; Table 2): 26 nM

SMILES: N=C(N/C(=N\S(=O)(=O)c1ccc(Cl)cc1)N1CC(c2ccccc2)C(c2ccc(Cl)cc2)=N1)c1ccncc1 (stereo not shown) [Compound 12]
- Ki (CB1; Table 1): 34 nM
- Ki (CB1; Table 2): 34 nM

SMILES: CNC(N)=NC(=NS(=O)(=O)c1ccc(Cl)cc1)N1CC(c2ccccc2)C(c2ccc(Cl)cc2)=N1 (stereo not shown) [Compound 45]
- Ki (CB1; Table 2): 327 nM

SMILES: N=C(N/C(=N\S(=O)(=O)c1ccc(Cl)cc1)N1CC(c2ccccc2)C(c2ccc(Cl)cc2)=N1)N1CCCC1 (stereo not shown) [Compound 55]
- Ki (CB1; Table 1): 241 nM
- Ki (CB1; Table 2): 241 nM

SMILES: NN/C(=N\S(=O)(=O)c1ccc(Cl)cc1)N1CC(c2ccccc2)C(c2ccc(Cl)cc2)=N1 (stereo not shown) [Compound 73]
- Ki (CB1; Table 1): 33 nM
- Ki (CB1; Table 2): 33 nM

SMILES: Cc1c(C(=O)NN2CCCCC2)nn(-c2ccc(Cl)cc2Cl)c1-c1ccc(Cl)cc1 [rimonabant, reference compound]
- AMPK activity (recombinant human AMPK): no effect
- CCl4-induced elevation of iNOS immunostaining [1, 5]: not by rimonabant
